From PubChem BioAssay (NCI)
Where “and” joins values, the source holds several entries; their conditions need not be identical. Equal entries are not always repeated.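 These data come from cells grown in 96-well plates and exposed to compound for 48 hours at five concentrations. The concentration for 50% growth inhibition is given as GI50. TGI marks complete inhibition of growth.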

Key:
Experiment in all cases: DTP human tumour cell line panel, 48 h
UACC-62 melanoma = tested on: UACC-62 melanoma
OVCAR-3 ovarian = tested on: OVCAR-3 ovarian
MOLT-4 leukemia = tested on: MOLT-4 leukemia
OVCAR-5 ovarian = tested on: OVCAR-5 ovarian
UO-31 renal = tested on: UO-31 renal
SK-MEL-5 melanoma = tested on: SK-MEL-5 melanoma
A498 renal = tested on: A498 renal
NCI-H522 lung = tested on: NCI-H522 lung
HOP-92 NSCLC = tested on: HOP-92 NSCLC
MALME-3M melanoma = tested on: MALME-3M melanoma

| Compound | GI50 (UACC-62 melanoma) [µM] | TGI (UACC-62 melanoma) | GI50 (OVCAR-3 ovarian) [µM] | TGI (OVCAR-3 ovarian) [µM] | GI50 (MOLT-4 leukemia) [µM] | TGI (MOLT-4 leukemia) [µM] | GI50 (OVCAR-5 ovarian) [µM] | TGI (OVCAR-5 ovarian) [µM] | GI50 (UO-31 renal) [µM] | TGI (UO-31 renal) [µM] | GI50 (SK-MEL-5 melanoma) [µM] | TGI (SK-MEL-5 melanoma) [µM] | GI50 (A498 renal) [µM] | TGI (A498 renal) [µM] | GI50 (NCI-H522 lung) [µM] | TGI (NCI-H522 lung) [µM] | GI50 (HOP-92 NSCLC) [µM] | TGI (HOP-92 NSCLC) [µM] | GI50 (MALME-3M melanoma) [µM] | TGI (MALME-3M melanoma) [µM] |
| --- | --- | --- | --- | --- | --- | --- | --- | --- | --- | --- | --- | --- | --- | --- | --- | --- | --- | --- | --- | --- |
| CCOC1Oc2ccccc2-c2oc(=O)c(Sc3ccc(C)cc3)cc21 (centres undefined) | 17.9 | > 100 µM | 18.1 | > 100 | 6.73 | 28.3 | > 100 | > 100 | 16.4 | > 100 | 26 | 95.3 | 34.4 | > 100 | 18.4 | 82.9 | 10.8 | 48.4 | 24.6 | 91.6 |
| Cc1cn(C2OC(C)(CO)C(O)C2O)c(=O)[nH]c1=O (centres undefined) |  | > 100 µM |  | > 100 |  | > 100 |  | > 100 |  | > 100 |  | > 100 |  | > 100 |  | > 100 |  | > 100 |  | > 100 |
| Cc1ccc2nc3c(Cl)c(C)c(=O)cc-3sc2c1 | 27.8 | > 1 µM and 92.2 µM | 50.2 | > 100 |  | > 100 | 73.7 | > 100 |  | > 100 |  | > 100 |  | > 100 |  | > 100 |  | > 100 | 73.8 | > 100 |
| O=C/C(=C(/Cl)c1ccc(O)cc1)c1ccccc1 |  | 22 µM |  | 37.5 |  | > 69.4 |  | > 100 |  | 61.8 |  | 48.9 |  | > 100 |  | 26.1 |  | 50.7 |  | 70.4 |
| CC1(C)N=C(N)N=C(N)N1c1ccc(OCC(=O)Nc2ccccc2)c(Cl)c1 | 0.569 | > 100 µM | 8.51 | > 100 | 1.19 | > 59.6 | > 100 | > 100 | > 100 | > 100 | 1.08 | > 100 | > 58.1 | > 100 | 3.01 | > 100 | 68.9 | > 100 | > 71.4 | > 100 |
| C=CCC1[C@@H](C(C)(C)C(C(C)=O)C(=O)C(=O)OC)OC(C(C)(C)C)N1C(=O)OC (some centres undefined) |  | > 100 µM |  | > 100 |  | 70.9 |  | > 100 |  | > 100 |  | > 100 |  | > 100 |  | > 100 |  | > 100 |  | > 100 |
| O=C1C(SCCO)=C(SCCO)C(=O)c2ccccc21 |  | 2.84 µM |  | 3.22 |  | 0.481 |  | 2.81 |  | 2.57 |  | 0.653 |  | 1.35 |  | 3.56 |  | 2.42 |  | 2.85 |
| C#CCC(N)(CO)C(=O)O (centres undefined) |  | > 100 µM |  | > 100 |  | > 100 |  | > 100 |  | > 100 |  | > 100 |  | > 100 |  | > 100 |  | > 100 |  | > 100 |
| CC(=O)[CH-]C(C)=O.[CH2-]C.[CH2-]C.[Tl+3] | > 100 | > 100 µM | > 100 | > 100 | > 100 | > 100 | > 100 | > 100 | > 100 | > 100 | > 100 | > 100 | > 100 | > 100 | > 100 | > 100 | > 100 | > 100 | > 100 | > 100 |
